Assay results taken from patent US20160158200A1, “Combinations of Hepatitis C Virus Inhibitors” (priority 2013, published 2016).

Tested on: HCV genotype-1a variant with glutamine 30 changed to glutamate in the NS5A protein
Format: cell-based
Settings: test compound titrated with BMS-790052 fixed at 200 nM; genotype 1a Q30E replicon
Summary of the method: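 Synergy was assessed by combining several fixed amounts of an NS5A-targeting compound with a titration of the second compound of interest.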

Row | Structure (SMILES) | Fold-Synergistic 1a (Q30E) [fold]
1 | CC(C)[C@H](NC(=O)[C@@]1(C)CCC(F)(F)CO1)c1nc(-c2ccc(-c3ccc(-c4c[nH]c([C@@H](NC(=O)[C@@]5(C)CCC(F)(F)CO5)C(C)C)n4)cn3)cc2)c[nH]1 [Compound N-134] | >100
2 | CC(C)(C)CC(=O)NC1(C(=O)N[C@H](c2nc(-c3ccc(-c4ccc(-c5c[nH]c([C@@H](NC(=O)C6(NC(=O)CC(C)(C)C)CCCCC6)C(C)(C)C)n5)cc4)cc3)c[nH]2)C(C)(C)C)CCCCC1 [Compound W-254] | >100
3 | CC(C)(CC(F)(F)F)C(=O)N[C@H](c1nc(-c2ccc(-c3ccc(-c4c[nH]c([C@@H](NC(=O)C(C)(C)CC(F)(F)F)C(C)(C)C)n4)cc3)cc2)c[nH]1)C(C)(C)C [Compound Y-8] | >100
4 | CC(C)(CO)C(=O)NC(c1nc(-c2ccc(-c3ccc(-c4c[nH]c(C(NC(=O)C(C)(C)CO)C(C)(C)C)n4)cc3)cc2)c[nH]1)C(C)(C)C [Compound L-56] | >100
5 | CC(C)[C@H](NC(=O)CC(F)(F)F)c1ncc(-c2ccc(-c3ccc(-c4cnc([C@@H](NC(=O)CC(F)(F)F)C(C)C)[nH]4)cc3)cc2)[nH]1 [Compound S-53] | >100
6 | CCOC(=O)NC(C)(C)C(=O)N[C@H](c1nc(-c2ccc(-c3ccc(-c4c[nH]c([C@@H](NC(=O)C(C)(C)NC(=O)OCC)C(C)(C)C)n4)cc3)cc2)c[nH]1)C(C)(C)C [Compound Q-2] | >100
7 | CC(C)(C)[C@H](NC(=O)C(=O)c1cccs1)c1nc(-c2ccc(-c3ccc(-c4c[nH]c([C@@H](NC(=O)C(=O)c5cccs5)C(C)(C)C)n4)cc3)cc2)c[nH]1 [Compound W-19] | >100
8 | CC(C)[C@H](NC(=O)C(C)(C)c1ccccc1)c1ncc(-c2ccc(-c3ccc(-c4cnc([C@@H](NC(=O)C(C)(C)c5ccccc5)C(C)C)[nH]4)cc3)cc2)[nH]1 [Compound S-47] | >100
9 | CC(C)(C)[C@H](NC(=O)C1(C2(O)CCC(F)(F)CC2)CC1)c1nc(-c2ccc(-c3ccc4c(c3)CCc3nc([C@@H](NC(=O)C5(C6(O)CCC(F)(F)CC6)CC5)C(C)(C)C)[nH]c3-4)cc2)c[nH]1 [Compound B13B] | >100
10 | COC(C)(C)C(=O)N[C@H](c1nc(-c2ccc(-c3ccc(-c4c[nH]c([C@@H](NC(=O)C(C)(C)OC)C(C)C)n4)cn3)cc2)c[nH]1)C(C)C.O=C(O)C(F)(F)F [Compound N-102] | >100
11 | CC(C)[C@H](NC(=O)c1ccccn1)c1ncc(-c2ccc(-c3ccc(-c4cnc([C@@H](NC(=O)c5ccccn5)C(C)C)[nH]4)cc3)cc2)[nH]1 [Compound S-46] | >10
12 | CC(CO)(CO)C(=O)N[C@H](c1nc(-c2ccc(-c3ccc(-c4c[nH]c([C@@H](NC(=O)C(C)(CO)CO)C(C)(C)C)n4)cc3)cc2)c[nH]1)C(C)(C)C [Compound W-125] | >100
13 | CC(C)(C)[C@H](NC(=O)C1CCC(F)(F)CC1)c1ncc(-c2ccc(-c3ccc4c(ccc5nc([C@@H](NC(=O)C6CCC(F)(F)CC6)C(C)(C)C)[nH]c54)c3)cc2)[nH]1 [Compound B17] | >100
14 | CC(C)COC(=O)N1CCC[C@H]1c1ncc(-c2ccc(-c3ccc(-c4cnc([C@@H]5CCCN5C(=O)OCC(C)C)[nH]4)cc3)cc2)[nH]1 [Compound S-222] | >10
15 | CC(C)[C@H](NC(=O)C(=O)C1(CO)CCC(F)(F)CC1)c1ncc(-c2ccc(-c3ccc(-c4cnc([C@@H](NC(=O)C(=O)C5(CO)CCC(F)(F)CC5)C(C)C)[nH]4)cc3)cc2)[nH]1 [Compound P-128] | >100
16 | CC(C)(C(=O)N[C@H](c1nc(-c2ccc(-c3ccc(-c4c[nH]c([C@@H](NC(=O)C(C)(C)C(F)F)C(C)(C)C)n4)cc3)cc2)c[nH]1)C(C)(C)C)C(F)F [Compound P-32] | >100
17 | CC(C)(C)[C@H](NC(=O)C1CCC(F)(F)CC1)c1ncc(-c2ccc(C#Cc3ccc4nc([C@@H](NC(=O)C5CCC(F)(F)CC5)C(C)(C)C)[nH]c4c3)cc2)[nH]1 [Compound B45] | >100
18 | CC(C)(C(=O)N[C@H](c1ncc(-c2ccc(-c3ccc(-c4cnc([C@@H](NC(=O)C(C)(C)C5=CCCCC5)C(C)(C)C)[nH]4)cc3)cc2)[nH]1)C(C)(C)C)C1=CCCCC1 [Compound B86] | >100
19 | CC(O)C(C)(C)C(=O)N[C@H](c1ncc(-c2ccc(-c3ccc(-c4cnc([C@@H](NC(=O)C(C)(C)C(C)O)C(C)(C)C)[nH]4)cc3)cc2)[nH]1)C(C)(C)C (single isomer, unassigned) [Compound B78] | >100
20 | COC1(C(=O)N[C@H](c2nc(-c3ccc(-c4ccc(-c5c[nH]c([C@@H](NC(=O)C6(OC)CC6)C(C)(C)C)n5)cc4)cc3)c[nH]2)C(C)(C)C)CC1 [Compound P-27] | >100

Row | Structure (SMILES) | Fold-Synergistic 1a (Q30E) [fold]
21 | CCNC(=O)NC1(C(=O)N[C@H](c2nc(-c3ccc(-c4ccc(-c5c[nH]c([C@@H](NC(=O)C6(NC(=O)NCC)CCCCC6)C(C)(C)C)n5)cc4)cc3)c[nH]2)C(C)(C)C)CCCCC1 [Compound W-251] | >100
22 | COc1cc2ccccc2c(C(=O)N[C@H](c2ncc(-c3ccc(-c4ccc(-c5cnc([C@@H](NC(=O)c6nc(OC)cc7ccccc67)C(C)C)[nH]5)cc4)cc3)[nH]2)C(C)C)n1 [Compound Y-19] | >100
23 | CC(C)[C@H](NC(=O)c1cocn1)c1ncc(-c2ccc(-c3ccc(-c4cnc([C@@H](NC(=O)c5cocn5)C(C)C)[nH]4)cc3)cc2)[nH]1 [Compound P-92] | >10
24 | CC(C)C(NC(=O)C1C2CC2CN1C(=O)OC(C)(C)C)c1nc(-c2ccc(-c3ccc(-c4c[nH]c(C(NC(=O)C5C6CC6CN5C(=O)OC(C)(C)C)C(C)C)n4)cc3)cc2)c[nH]1 (stereo not drawn) [Compound W-74] | >100
25 | CC(C)[C@H](NC(=O)C1(C)CC1)c1ncc(-c2ccc(-c3ccc(-c4cnc([C@@H](NC(=O)C5(C)CC5)C(C)C)[nH]4)cc3)cc2)[nH]1 [Compound S-1] | >100
26 | CC1(C(=O)N[C@H](c2nc(-c3ccc(-c4ccc(-c5c[nH]c([C@@H](NC(=O)C6(C)CCCCC6O)C(C)(C)C)n5)cc4)cc3)c[nH]2)C(C)(C)C)CCCCC1O (single isomer, unassigned) [Compound Y-105] | >100
27 | CC(C)[C@H](NC(=O)c1cc(Cl)ccc1F)c1nc(-c2ccc(-c3ccc(-c4c[nH]c([C@@H](NC(=O)c5cc(Cl)ccc5F)C(C)C)n4)c(F)c3)cc2)c[nH]1.O=C(O)C(F)(F)F [Compound N-88] | >100
28 | COC(=O)NC(C(=O)NC(c1nc(-c2ccc(-c3ccc(-c4cn(C)c(C(NC(=O)C(NC(=O)OC)C(C)C)C(C)C)n4)cc3)cc2)cn1C)C(C)C)C(C)C.O=C(O)C(F)(F)F.O=C(O)C(F)(F)F (stereo not drawn) [Compound Y-17] | >10
29 | CCCC[C@@H](CC(=O)OC(C)(C)C)C(=O)N[C@H](c1nc(-c2ccc(-c3ccc(-c4c[nH]c([C@@H](NC(=O)[C@@H](CCCC)CC(=O)OC(C)(C)C)C(C)(C)C)n4)cc3)cc2)c[nH]1)C(C)(C)C [Compound S-260] | >100
30 | COC(c1ccccc1)C1(C(=O)N[C@H](c2nc(-c3ccc(-c4ccc(-c5c[nH]c([C@@H](NC(=O)C6(C(OC)c7ccccc7)CC6)C(C)(C)C)n5)cc4)cc3)c[nH]2)C(C)(C)C)CC1 (stereo partly drawn) [Example N-137] | <10
31 | COc1ccccc1C(O)C(C)(C)C(=O)N[C@H](c1nc(-c2ccc(-c3ccc(-c4c[nH]c([C@@H](NC(=O)C(C)(C)C(O)c5ccccc5OC)C(C)(C)C)n4)cc3)cc2)c[nH]1)C(C)(C)C (single isomer, unassigned) [Compound N-125A] | >100
32 | CC(=O)N1C[C@H](F)C[C@H]1C(=O)N[C@H](c1nc(-c2ccc(-c3ccc(-c4c[nH]c([C@@H](NC(=O)[C@@H]5C[C@@H](F)CN5C(C)=O)C(C)(C)C)n4)cc3)cc2)c[nH]1)C(C)(C)C [Compound W-102] | >10
33 | CC(C)[C@H](NC(=O)C(c1ccccc1)c1ccccc1)c1ncc(-c2ccc(-c3ccc(-c4cnc([C@@H](NC(=O)C(c5ccccc5)c5ccccc5)C(C)C)[nH]4)cc3)cc2)[nH]1 [Compound S-12] | >100
34 | CC(C)(C(=O)N[C@H](c1nc(-c2ccc(-c3ccc(-c4cnc([C@@H](NC(=O)C(C)(C)C5CC5)C(C)(C)C)[nH]4)cc3)cc2)c[nH]1)C(C)(C)C)C1CC1 [Compound B-167] | >100
35 | CC(C)(C)[C@H](NC(=O)C(C)(C)C1(O)CCCCC1)c1nc(-c2ccc(-c3ccc(-c4c[nH]c([C@@H](NC(=O)C(C)(C)C5(O)CCCCC5)C(C)(C)C)n4)cc3)cc2)c[nH]1 [Compound P-160] | >100
36 | CC(C)(C)[C@H](NC(=O)C(=O)N1CCC(C(F)(F)F)CC1)c1nc(-c2ccc(-c3ccc(-c4c[nH]c([C@@H](NC(=O)C(=O)N5CCC(C(F)(F)F)CC5)C(C)(C)C)n4)cc3)cc2)c[nH]1 [Compound W-60] | >100
37 | COCC(C)(COC)C(=O)NC(c1nc(-c2ccc(-c3ccc(-c4c[nH]c(C(NC(=O)C(C)(COC)COC)C(C)(C)C)n4)cc3)cc2)c[nH]1)C(C)(C)C [Compound L-123] | >100
38 | CC(C)(C)[C@H](NC(=O)[C@@]1(C)CCC(F)(F)CO1)c1ncc(-c2ccc(C34CCC(c5cnc([C@@H](NC(=O)[C@@]6(C)CCC(F)(F)CO6)C(C)(C)C)[nH]5)(CC3)CC4)cc2)[nH]1 [Compound B-186, (R)—N—((S)-1-(5-(4-(4-(2-((S)-1-((R)-5,5-difluoro-2-methyltetrahydro-2H-pyran-2-carboxamido)-2,2-dimethylpropyl)-1H-imidazol-5-yl)bicyclo[2.2.2]octan-1-yl)phenyl)-1H-imidazol-2-yl)-2,2-dimethylpropyl)-5,5-difluoro-2-methyltetrahydro-2H-pyran-2-carboxamide] | >100
39 | CC(C)[C@H](NC(=O)CC12CC3CC(CC(C3)C1)C2)c1ncc(-c2ccc(-c3ccc(-c4cnc([C@@H](NC(=O)CC56CC7CC(CC(C7)C5)C6)C(C)C)[nH]4)cc3)cc2)[nH]1 [Compound P-57] | >100
